Laboratory results: ChEMBL document CHEMBL1137916, “5-Amidinoindoles as dual inhibitors of coagulation factors IXa and Xa” (Bioorg Med Chem Lett, 2004)

Experiments:
Coagulation factor IX = Coagulation factor IX (Homo sapiens, UniProt P00740); assay: Binding affinity towards human factor IXa
Coagulation factor X = Coagulation factor X (Homo sapiens, UniProt P00742); assay: Binding affinity towards human factor Xa
Chain of Coagulation factor X (P00742 41-179 limits assumed): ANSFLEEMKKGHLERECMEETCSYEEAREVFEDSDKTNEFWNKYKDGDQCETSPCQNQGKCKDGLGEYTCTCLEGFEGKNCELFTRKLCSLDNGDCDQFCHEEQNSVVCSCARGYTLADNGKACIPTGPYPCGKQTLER
Chain of Coagulation factor X (P00742 235-488 limits assumed): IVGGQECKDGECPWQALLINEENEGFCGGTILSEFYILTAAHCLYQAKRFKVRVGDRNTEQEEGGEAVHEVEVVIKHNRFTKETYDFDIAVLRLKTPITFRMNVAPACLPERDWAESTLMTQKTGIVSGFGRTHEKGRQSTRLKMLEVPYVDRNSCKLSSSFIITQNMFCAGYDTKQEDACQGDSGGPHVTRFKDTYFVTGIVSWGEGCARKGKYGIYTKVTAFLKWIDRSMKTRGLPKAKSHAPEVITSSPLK

Chain of Coagulation factor IX (P00740 47-191 limits assumed): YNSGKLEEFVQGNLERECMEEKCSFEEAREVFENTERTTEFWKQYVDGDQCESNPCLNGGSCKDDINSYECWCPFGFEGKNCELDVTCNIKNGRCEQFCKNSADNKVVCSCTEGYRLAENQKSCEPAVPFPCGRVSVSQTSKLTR
Chain of Coagulation factor IX (P00740 227-461 limits assumed): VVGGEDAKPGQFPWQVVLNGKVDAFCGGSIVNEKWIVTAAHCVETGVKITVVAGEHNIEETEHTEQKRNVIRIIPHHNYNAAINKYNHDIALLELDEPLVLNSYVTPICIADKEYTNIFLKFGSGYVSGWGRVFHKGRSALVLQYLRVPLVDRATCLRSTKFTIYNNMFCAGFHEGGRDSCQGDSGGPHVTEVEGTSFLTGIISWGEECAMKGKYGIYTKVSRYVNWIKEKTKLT

## N=C(N)c1ccc2[nH]cc(CC(=O)Nc3ccc(-c4ccccc4S(N)(=O)=O)cc3)c2c1
Coagulation factor IX
  Ki: 6700 nM
Coagulation factor X
  Ki: 3.2 nM

## N=C(N)c1ccc2[nH]cc(C(CC(=O)Nc3ccc(-n4cnc5ccccc54)cc3)Cc3ccccc3)c2c1 (stereo not given)
Coagulation factor IX
  Ki: 250 nM
Coagulation factor X
  Ki: 36 nM

## CC(C(=O)Nc1ccc(-n2cnc3ccccc32)cc1)c1c[nH]c2ccc(C(=N)N)cc12 (stereo not given)
Coagulation factor IX
  Ki: 480 nM
Coagulation factor X
  Ki: 3 nM

## N=C(N)c1ccc2[nH]cc(C(Cc3ccccc3)C(=O)NCc3ccc(-n4cnc5ccccc54)cc3)c2c1 (stereo not given)
Coagulation factor IX
  Ki: 310 nM
Coagulation factor X
  Ki: 72 nM

## Cn1cc(C(Cc2ccccc2)C(=O)Nc2ccc(-n3cnc4ccccc43)cc2F)c2cc(C(=N)N)ccc21 (stereo not given)
Coagulation factor IX
  Ki: 360 nM
Coagulation factor X
  Ki: 160 nM

## N=C(N)c1ccc2[nH]cc(C(CCc3ccccc3)C(=O)Nc3ccc(-n4cnc5ccccc54)cc3F)c2c1 (stereo not given)
Coagulation factor IX
  Ki: 240 nM
Coagulation factor X
  Ki: 6.1 nM

## N=C(N)c1ccc2[nH]cc(C(Cc3ccc4ccccc4c3)C(=O)Nc3ccc(-n4cnc5ccccc54)cc3F)c2c1 (stereo not given)
Coagulation factor IX
  Ki: 98 nM
Coagulation factor X
  Ki: 28 nM

## N=C(N)c1ccc2[nH]cc(C(Cc3ccc(N)cc3)C(=O)Nc3ccc(-n4cnc5ccccc54)cc3)c2c1 (stereo not given)
Coagulation factor IX
  Ki: 75 nM
Coagulation factor X
  Ki: 4 nM

## N=C(N)c1ccc2[nH]cc(C(Cc3ccccc3)C(=O)Nc3ccc(-n4cnc(-c5ccccc5)c4)cc3)c2c1 (stereo not given)
Coagulation factor IX
  Ki: 270 nM
Coagulation factor X
  Ki: 79 nM

## N=C(N)c1ccc2[nH]cc([C@H](Cc3ccccc3)C(=O)Nc3ccc(-n4cnc5ccccc54)cc3F)c2c1
Coagulation factor IX
  Ki: 820 nM
Coagulation factor X
  Ki: 26 nM

## N=C(N)c1ccc2[nH]cc([C@@H](Cc3ccccc3)C(=O)Nc3ccc(-n4cnc5ccccc54)cc3F)c2c1
Coagulation factor IX
  Ki: 19 nM
Coagulation factor X
  Ki: 1.3 nM

## N=C(N)c1ccc2[nH]cc(C(Cc3ccccc3)C(=O)NCc3ccc(C(=O)Nc4nc5ccccc5[nH]4)cc3)c2c1 (stereo not given)
Coagulation factor IX
  Ki: 930 nM
Coagulation factor X
  Ki: 810 nM

## N=C(N)c1ccc2[nH]cc(C(Cc3ccccc3)C(=O)Nc3ccc(-c4ccccc4S(N)(=O)=O)cc3)c2c1 (stereo not given)
Coagulation factor IX
  Ki: 660 nM
Coagulation factor X
  Ki: 0.63 nM

## N=C(N)c1ccc2[nH]cc(CC(Cc3ccccc3)C(=O)Nc3ccc(-n4cnc5ccccc54)cc3)c2c1 (stereo not given)
Coagulation factor IX
  Ki: 130 nM
Coagulation factor X
  Ki: 45 nM

## CS(=O)(=O)c1ccc2nc(NC(=O)c3ccc(CNC(=O)C(Cc4ccccc4)c4c[nH]c5ccc(C(=N)N)cc45)cc3)[nH]c2c1 (stereo not given)
Coagulation factor IX
  Ki: 660 nM
Coagulation factor X
  Ki: 1100 nM

## N=C(N)c1ccc2[nH]cc(C(CC3CC3)C(=O)Nc3ccc(-n4cnc5ccccc54)cc3)c2c1 (stereo not given)
Coagulation factor IX
  Ki: 3800 nM
Coagulation factor X
  Ki: 14 nM

## N=C(N)c1ccc2[nH]cc(C(Cc3ccc(NC(=O)c4ccccc4)cc3)C(=O)Nc3ccc(-n4cnc5ccccc54)cc3)c2c1 (stereo not given)
Coagulation factor IX
  Ki: 270 nM
Coagulation factor X
  Ki: 18 nM

## CCC(C(=O)Nc1ccc(-n2cnc3ccccc32)cc1)c1c[nH]c2ccc(C(=N)N)cc12 (stereo not given)
Coagulation factor IX
  Ki: 160 nM
Coagulation factor X
  Ki: 2.8 nM

## N=C(N)c1ccc2[nH]cc(C(Cc3cccc(C(=O)O)c3)C(=O)Nc3ccc(-n4cnc5ccccc54)cc3F)c2c1 (stereo not given)
Coagulation factor IX
  Ki: 59 nM
Coagulation factor X
  Ki: 1.8 nM

## CC(C)(C(=O)Nc1ccc(-n2cnc3ccccc32)cc1)c1c[nH]c2ccc(C(=N)N)cc12
Coagulation factor IX
  Ki: 750 nM
Coagulation factor X
  Ki: 2.2 nM

## N=C(N)c1ccc2[nH]cc(C(Cc3ccc(NS(=O)(=O)c4ccccc4)cc3)C(=O)Nc3ccc(-n4cnc5ccccc54)cc3)c2c1 (stereo not given)
Coagulation factor IX
  Ki: 130 nM
Coagulation factor X
  Ki: 19 nM

## N=C(N)c1ccc2[nH]cc(C(Cc3cccnc3)C(=O)Nc3ccc(-n4cnc5ccccc54)cc3)c2c1 (stereo not given)
Coagulation factor IX
  Ki: 1200 nM
Coagulation factor X
  Ki: 7 nM

## N=C(N)c1ccc2[nH]cc(C(Cc3ccccc3)C(=O)NCc3cccc(C(=O)Nc4nc5ccccc5[nH]4)c3)c2c1 (stereo not given)
Coagulation factor IX
  Ki: 1900 nM
Coagulation factor X
  Ki: 2600 nM

## N=C(N)c1ccc2ccn(C(Cc3ccccc3)C(=O)Nc3ccc(-n4cnc5ccccc54)cc3F)c2c1 (stereo not given)
Coagulation factor IX
  Ki: 300 nM
Coagulation factor X
  Ki: 5.6 nM

## N=C(N)c1ccc2[nH]cc(C(Cc3ccccc3)C(=O)Nc3ccc(-n4cnc5ccccc54)cc3F)c2c1 (racemic)
Coagulation factor IX
  Ki: 63 nM
Coagulation factor X
  Ki: 2.5 nM
